Positions count from the first letter of the chain named. Where a SMILES comes first, the peptide text is derived from it. Bridges are numbered along the chain shown (N, C = ends).
Columns and labels:
Test in all cases: Heterologous whole cell competition binding
Conditions in all cases: heterologous competition of 125I-sCT(8-32), whole cells, mean ± S.E.M., SEM
[1] = biological target: T1, hCTR L298A (Homo sapiens, UniProt P30988, L298A)
T1 construct: c-Myc (N); expressed in transfected cells
T1 sequence (P30988 25-474 L298A): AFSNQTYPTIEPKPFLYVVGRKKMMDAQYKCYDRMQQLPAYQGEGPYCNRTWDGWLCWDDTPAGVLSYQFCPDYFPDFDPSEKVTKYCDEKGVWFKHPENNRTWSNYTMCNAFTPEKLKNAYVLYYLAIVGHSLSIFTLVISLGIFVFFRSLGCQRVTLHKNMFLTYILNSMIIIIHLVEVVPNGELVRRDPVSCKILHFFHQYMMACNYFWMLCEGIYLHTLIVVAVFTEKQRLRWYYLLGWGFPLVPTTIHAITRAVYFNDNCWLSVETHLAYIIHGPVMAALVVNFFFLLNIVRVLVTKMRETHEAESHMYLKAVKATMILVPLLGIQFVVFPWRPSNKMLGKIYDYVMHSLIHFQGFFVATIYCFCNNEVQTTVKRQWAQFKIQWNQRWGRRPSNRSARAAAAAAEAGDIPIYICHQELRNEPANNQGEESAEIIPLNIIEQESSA
Procedure: (§1) Following overnight incubation non-bound ligand was removed and radioactivity was determined using a gamma counter.
(§2) Data were corrected for radioligand occupancy using the Cheng-Prusoff equation in Prism; as such data are reported as pKi. Emax and EC50 were estimated from concentration-response curves using with a 3-parameter logistic equation in Prism (v7). These values are a composite of functional affinity, efficacy and stimulus response coupling. […] Significance was accepted at P < 0.05.

[2] = biological target: T2, hCTR S364A (Homo sapiens, UniProt P30988, S364A)
T2 construct: c-Myc (N); expressed in transfected cells
T2 sequence (P30988 25-474 S364A): T1 sequence (P30988 25-474 L298A) with A274L, S340A
Procedure: as §1, §2

[3] = biological target: T3, hCTR V357A (Homo sapiens, UniProt P30988, V357A)
T3 construct: c-Myc (N); expressed in transfected cells
T3 sequence (P30988 25-474 V357A): T1 sequence (P30988 25-474 L298A) with A274L, V333A
Procedure: as §1, §2

[4] = biological target: T4, hCTR W361A (Homo sapiens, UniProt P30988, W361A)
T4 construct: expressed in transfected cells
T4 sequence (P30988 25-474 W361A): T1 sequence (P30988 25-474 L298A) with A274L, W337A
Procedure: as §1, §2

[5] = biological target: T5, hCTR Y284A (Homo sapiens, UniProt P30988, Y284A)
T5 construct: expressed in transfected cells
T5 sequence (P30988 25-474 Y284A): T1 sequence (P30988 25-474 L298A) with Y260A, A274L
Procedure: as §1, §2

## CSCC[C@H](NC(=O)CNC(=O)[C@H](CO)NC(=O)[C@H](Cc1ccccc1)NC(=O)[C@H](CCCNC(=N)N)NC(=O)[C@H](Cc1c[nH]cn1)NC(=O)[C@H](Cc1ccccc1)NC(=O)[C@H](CC(N)=O)NC(=O)[C@H](CC(N)=O)NC(=O)[C@H](CC(C)C)NC(=O)[C@H](CC(N)=O)NC(=O)[C@H](CCCNC(=N)N)NC(=O)[C@H](Cc1c[nH]c2ccccc12)NC(=O)[C@H](Cc1ccc(O)cc1)NC(=O)[C@H](C)NC(=O)[C@H](CO)NC(=O)[C@H](CC(C)C)NC(=O)[C@@H](NC(=O)[C@@H]1CSSC[C@H](N)C(=O)N[C@@H](CO)C(=O)N[C@@H](CC(N)=O)C(=O)N[C@@H](CC(C)C)C(=O)N[C@@H](CO)C(=O)N[C@@H]([C@@H](C)O)C(=O)N1)C(C)C)C(=O)NCC(=O)N[C@@H](Cc1ccccc1)C(=O)NCC(=O)N1CCC[C@H]1C(=O)N[C@@H](CCC(=O)O)C(=O)N[C@H](C(=O)N1CCC[C@H]1C(N)=O)[C@@H](C)O [pCT] (H-CSNLSTCVLSAYWRNLNNFHRFSGMGFGPETP-NH2; disulfide 1-7)
[1]
  Ki: 20.4 nM
[2]
  Ki: 5.37 nM
[3]
  Ki: 12.9 nM
[4]
  Ki: 33.9 nM
[5]
  Ki: 14.5 nM

Source: paper PMC5908784, “Extracellular loops 2 and 3 of the calcitonin receptor selectively modify agonist binding and efficacy” (Biochemical Pharmacology, 2018)
